Among the data in ChEMBL document CHEMBL6083178, “Chemistry and pharmacological aspects of furanoid cannabinoids and related compounds: Is furanoid cannabinoids open a new dimension towards the non-psychoactive cannabinoids?” (Eur J Med Chem, 2024) are Ki values, retold here.

Assay [1] addresses T1, Cannabinoid receptor 1 (Homo sapiens, UniProt P21554). The assay is described as follows: Displacement of [3H]CP55940 from human CB1 receptor assessed as inhibition constant. On the technique in general: In a radioligand displacement assay an active substance lowers the binding of a labelled ligand.
The target of assay [2] is Cannabinoid receptor 1 (Mus musculus, UniProt P47746). The assay is described as follows: Displacement of [3H]CP55940 from mouse brain CB1 receptor assessed as inhibition constant.
In assay [3] the target is T2, Cannabinoid receptor 2 (Homo sapiens, UniProt P34972). The assay is described as follows: Displacement of [3H]HU-243 from human CB2 receptor assessed as inhibition constant.
Assay [4] deals with T1, Cannabinoid receptor 1. In words: Displacement of [3H]CP55940 from CB1 receptor (unknown origin) assessed as inhibition constant measured after 90 mins.
Assay [5] addresses T2, Cannabinoid receptor 2. The assay is described as follows: Binding affinity to CB2 receptor (unknown origin) assessed as inhibition constant measured after 90 mins.

Structures are written as SMILES.

T1 sequence (P21554 whole entry): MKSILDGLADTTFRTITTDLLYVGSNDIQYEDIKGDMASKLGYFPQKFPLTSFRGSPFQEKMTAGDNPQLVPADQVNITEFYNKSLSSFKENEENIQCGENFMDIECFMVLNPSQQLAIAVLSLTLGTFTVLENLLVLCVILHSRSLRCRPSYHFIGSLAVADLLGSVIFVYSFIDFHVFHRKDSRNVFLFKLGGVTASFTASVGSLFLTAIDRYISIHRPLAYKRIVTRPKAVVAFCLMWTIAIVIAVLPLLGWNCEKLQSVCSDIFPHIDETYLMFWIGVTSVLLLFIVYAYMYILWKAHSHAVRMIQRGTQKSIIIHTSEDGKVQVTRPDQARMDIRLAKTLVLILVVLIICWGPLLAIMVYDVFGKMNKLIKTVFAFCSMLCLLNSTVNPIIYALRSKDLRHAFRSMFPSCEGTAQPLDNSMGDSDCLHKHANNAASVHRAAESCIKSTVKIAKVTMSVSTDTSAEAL
T2 sequence (P34972 whole entry): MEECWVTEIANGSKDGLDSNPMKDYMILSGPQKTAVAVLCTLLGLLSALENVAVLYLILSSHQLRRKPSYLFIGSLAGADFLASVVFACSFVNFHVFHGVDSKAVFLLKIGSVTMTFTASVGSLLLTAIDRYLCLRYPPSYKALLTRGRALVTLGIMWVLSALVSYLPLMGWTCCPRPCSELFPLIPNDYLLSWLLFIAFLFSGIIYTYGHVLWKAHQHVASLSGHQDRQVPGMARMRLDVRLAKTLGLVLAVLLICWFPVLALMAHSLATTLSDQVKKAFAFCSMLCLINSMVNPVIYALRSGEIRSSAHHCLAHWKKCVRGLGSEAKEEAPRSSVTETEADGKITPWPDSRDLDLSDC
Sequence of Cannabinoid receptor 1 (Mus musculus, UniProt P47746) (P47746 whole entry): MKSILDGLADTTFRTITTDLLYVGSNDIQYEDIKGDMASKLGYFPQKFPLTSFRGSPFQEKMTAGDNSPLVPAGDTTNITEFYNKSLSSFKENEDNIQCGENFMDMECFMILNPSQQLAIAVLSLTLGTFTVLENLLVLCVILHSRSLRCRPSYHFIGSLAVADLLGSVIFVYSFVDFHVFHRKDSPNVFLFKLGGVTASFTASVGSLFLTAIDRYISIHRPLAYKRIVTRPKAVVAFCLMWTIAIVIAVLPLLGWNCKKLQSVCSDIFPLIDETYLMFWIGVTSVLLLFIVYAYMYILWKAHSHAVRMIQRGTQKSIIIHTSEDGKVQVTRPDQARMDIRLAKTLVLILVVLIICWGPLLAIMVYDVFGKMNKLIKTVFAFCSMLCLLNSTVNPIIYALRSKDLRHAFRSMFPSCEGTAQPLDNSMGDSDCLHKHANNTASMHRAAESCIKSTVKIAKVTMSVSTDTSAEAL

Turning to `CCCCCc1cc(O)c2c(c1)OC(C)(C)c1ccc(C)cc1-2` [CANNABINOL], the Ki at Cannabinoid receptor 1 [1] came out at 100 nM.

As for `CCCc1cc(O)c2c(c1)OC(C)(C)[C@@H]1CCC(C)=C[C@@H]21` [TETRAHYDROCANNABIVARIN], the Ki at Cannabinoid receptor 1 [1] is 80 nM.

On to `C=C(C)[C@@H]1CCC(C)=C[C@H]1c1c(O)cc(CCCCC)cc1O` [CANNABIDIOL], for which the Ki at Cannabinoid receptor 1 [2] stood at 4400 nM.

As for `CCCCCc1cc(O)c(C/C=C(\C)CCC=C(C)C)c(O)c1` [CANNABIGEROL], the Ki stood at 100 nM on Cannabinoid receptor 2 [3] and 400 nM at Cannabinoid receptor 1 [1].

For the molecule `CCCCCc1cc(O)c2c(c1)OC(C)(CCC=C(C)C)C=C2` (configuration not stated) [CANNABICHROMENE], the Ki at Cannabinoid receptor 1 [4] was determined as 700 nM; on Cannabinoid receptor 2 [5], 200 nM.

As usually defined, the Ki is the equilibrium dissociation constant of an inhibitor or competing ligand from its target.
